Experimental data: patent US20200288710A1, “SUBSTITUTED SULPHONAMIDES FOR CONTROLLING ANIMAL PESTS” (BAYER CROPSCIENCE AKTIENGESELLSCHAFT, priority 2016, published 2020)

Legend:
Type in all cases: in vivo
[1] = system: Myzus persicae; test: Myzus persicae oral test; details: 120 h, 20 ppm, oral uptake, after 5 days, read-out: efficacy
Outline: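 Aphids of mixed ages imbibe, through parafilm, compound solution (acetone stock, water-diluted) combined with sugar-supplemented IPL41 medium to 200 μl. Efficacy read at day 5 as percent killed, 0% meaning no deaths.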

[2] = system: Meloidogyne incognita; test: Meloidogyne incognita test; details: 336 h, lettuce, after 14 days, read-out: nematicidal efficacy (formation of galls)
Outline: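 Gall formation on lettuce roots scored after 14 days: 0% means gall count equals untreated control, 100% means none. Sand vessels held the compound (acetone concentrate diluted in water), southern root-knot nematode egg/larvae suspension and lettuce seeds.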

[3] = system: Aphis gossypii; test: Aphis gossypii spray test; details: 100 ppm, cotton plants, after 6 days
Procedure: Aphis gossypii—Spray Test Solvent: 14 parts by weight of dimethylformamide Emulsifier: alkylaryl polyglycol ether To produce a suitable preparation of active compound, 1 part by weight of active compound is dissolved using the specified parts by weight of solvent and made up with water containing an emulsifier concentration of 1000 ppm until the desired concentration is attained. To produce further test concentrations, the formulation is diluted with emulsifier-containing water. If the addition of ammonium salts or/and penetrants is required, these are each added in a concentration of 1000 ppm to the formulation solution. Cotton plants (Gossypium hirsutum) which are heavily infested by the cotton aphid (Aphis gossypii) are sprayed with an active compound preparation of the desired concentration. After 6 days, the kill in % is determined. 100% means that all the aphids have been killed; 0% means that no aphids have been killed.

[4] = system: Myzus persicae; test: Myzus persicae spray test (Chinese cabbage leaf discs); details: foliar, 120 h, 500 g/ha, after 5-6 days, read-out: efficacy
Outline: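 Formulated compound in acetone/dimethylformamide, diluted in water with 1000 ppm emulsifier, was sprayed onto Brassica pekinensis leaf discs carrying mixed-stage Myzus persicae. Percent mortality was read 5-6 days later (0% = no aphids killed, 100% = all killed).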

[5] = system: Lucilia cuprina; test: Lucilia cuprina test; details: 48 h, L1 larvae, after 2 days, read-out: efficacy (kill in %)
Outline: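 About 20 L1 larvae were held on minced horsemeat treated with compound, which was formulated in DMSO and diluted with water. Percent kill was scored after 2 days.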

[6] = system: Boophilus microplus; test: Boophilus microplus injection test; details: 20 μg/animal, injection into engorged adult female cattle ticks, after 7 days
Procedure: Boophilus microplus—Injection Test Solvent: dimethyl sulphoxide To produce a suitable preparation of active compound, 10 mg of active compound are mixed with 0.5 ml of solvent and the concentrate is diluted with solvent to the desired concentration. 1 μl of the active compound solution is injected into the abdomen of 5 engorged adult female cattle ticks (Boophilus microplus). The animals are transferred into dishes and kept in a climate-controlled room. Efficacy is assessed after 7 days by laying of fertile eggs. Eggs which are not externally visibly fertile are stored in a climate-controlled cabinet until the larvae hatch after about 42 days. An efficacy of 100% means that none of the ticks has laid any fertile eggs; 0% means that all the eggs are fertile.

[7] = system: Musca domestica; test: Musca domestica test; details: 48 h, adult houseflies, after 2 days, read-out: efficacy (kill in %)
Procedure: Musca domestica Test Solvent: dimethyl sulphoxide To produce a suitable preparation of active compound, 10 mg of active compound are mixed with 0.5 ml of dimethyl sulphoxide, and the concentrate is diluted with water to the desired concentration. Vessels containing a sponge treated with sugar solution and the active compound preparation of the desired concentration are populated with 10 adult houseflies (Musca domestica). After 2 days, the kill in % is determined. 100% means that all of the flies have been killed; 0% means that none of the flies have been killed.

[8] = system: Phaedon cochleariae; test: Phaedon cochleariae spray test; details: foliar, 168 h, Chinese cabbage leaf discs, larvae, after 7 days, read-out: efficacy
Outline: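 Mortality of beetle larvae scored at day 7, expressed as % (0% none killed, 100% all). Formulation: compound in solvent, made up and further diluted with emulsifier-containing water (1000 ppm emulsifier).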

Row | Structure (SMILES) | pest or weed control at 20 ppm [1] [%] | pest or weed control at 20 ppm [2] [%] | efficacy (kill in %) [3] [%] | pest or weed control at 500 g/ha [4] [%] | pest or weed control at 100 ppm [5] [%] | efficacy (laying of fertile eggs) [6] [%] | pest or weed control at 100 ppm [7] [%] | pest or weed control at 500 g/ha [8] [%]
1 | Cc1c(C(=O)NS(=O)(=O)c2ccccc2Cl)nc(-c2ccccc2Cl)n1C [Example 103] | 100 | 100 | 98 |  |  |  |  | 
2 | Cc1c(C(=O)NS(=O)(=O)c2ccccc2Cl)nc(-c2c(F)cccc2F)n1C [Example 194] | 100 | 90 | 100 |  |  |  |  | 
3 | CCc1ccccc1S(=O)(=O)NC(=O)c1cn(C)c(-c2ccccc2Cl)n1 [Example 219] | 100 | 90 |  | 100 | 100 | 80 | 85 | 
4 | Cc1ccc(C)c(S(=O)(=O)NC(=O)c2cn(C)c(-c3cccc4ccccc34)n2)c1 [Example 502] | 100 | 100 | 95 |  |  |  |  | 100
